Results from patent US12667584B2, “Adenosine analog and its use in regulating the circadian clock” (NATIONAL INSTITUTE OF BIOLOGICAL SCIENCES, BEIJING, priority 2017, dated 2026).
Like-named read-outs stand apart in the source and are kept apart here.

Tested on: Per2-Luc reporter U2OS cells (D15)
Assay: Circadian phase shift cell assay in D15 cells, 384 well plate, Tecan, with or without pentostatin
Format: cell-based, human
Conditions: for With Pentostadin Cell Assay: pentostatin 5 μg/ml; for amplitude effect, Per2:luc signal versus control / period effect: under the concentration of 100 μM; for minimal effective concentration: read-out: Cell Assay
[1] = concentration that shifts the circadian phase
[2] = without pentostatin, concentration that shifts the circadian phase
[3] = Homo sapiens, U2OS, without pentostatin, concentration that shifts the circadian phase

SMILES | With Pentostadin Cell Assay [1] [µM] | minimal effective concentration [3] [µM] | other results
Nc1ncnc2c1ccn2[C@@H]1O[C@H](CO)C(O)C1O (stereo partly drawn) [drawing 318] | 25 |  | 
[2H]c1nc(N)c2nc([2H])n([C@@H]3O[C@H](CO)[C@H](O)[C@H]3O)c2n1 [NQZ-198] |  |  | amplitude effect, Per2:luc signal versus control: more than two fold of control
Nc1ncnc2c1ncn2[C@@H]1O[C@H](COC(=O)CCCC[C@@H]2SC[C@@H]3NC(=O)N[C@@H]32)CC1O (stereo partly drawn) [drawing 290] | 6 |  | minimal effective concentration [2]: >500 µM
Nc1ncnc2c1ncn2[C@@H]1O[C@H](COC(=O)CCCC[C@@H]2SC[C@@H]3NC(=O)N[C@@H]32)CC1O (stereo partly drawn) [drawing 316] |  |  | minimal effective concentration [2]: 200 µM
OC[C@H]1O[C@@H](n2cnc3c(NCc4ccccc4)ncnc32)C(O)C1O (stereo partly drawn) | 10 | 10 | 
O=C1N[C@H]2[C@H](CS[C@H]2CCCCC(=O)OC[C@H]2O[C@@H](n3cnc4cc(Cl)c(Cl)cc43)C(O)C2O)N1 (stereo partly drawn) |  | 40 | 
Nc1ncnc2c1ncn2[C@@H]1O[C@H](CO)CC1O (stereo partly drawn) | 0.5 | 25 | 
Nc1ncnc2c1c(F)cn2[C@@H]1O[C@H](CO)[C@H](O)[C@H]1O | 100 | > 500 | 
O=P(O)(O)OP(=O)(O)OP(=O)(O)OC[C@H]1O[C@@H](n2cnc3c(NCc4ccccc4)ncnc32)[C@H](O)[C@@H]1O |  | 10 | 
CNc1nc2c(=O)[nH]c(N)nc2n1[C@@H]1O[C@H](CO)C(O)C1O (stereo partly drawn) |  | 100 | 
OC[C@H]1O[C@@H](n2cnc3cc(Cl)c(Cl)cc32)C(O)C1O (stereo partly drawn) [drawing 284] |  |  | minimal effective concentration [2]: 10 µM
Nc1nccc2c1ncn2[C@@H]1O[C@H](CO)[C@H](O)[C@H]1O | 100 | > 500 | 
Cc1cccc(Cc2nn(C(C)(C)C)c3ncnc(N)c23)c1 |  | 10 | 
Nc1nc(F)nc2c1nc(F)n2[C@@H]1O[C@H](CO)[C@H](O)[C@H]1O | 200 | > 500 | 
Nc1ncnc2c1ncn2[C@@H]1O[C@H](C2NN2)CC1O (stereo partly drawn) | 100 |  | minimal effective concentration (Homo sapiens, U2OS): > 500 µM
Nc1ncnc2c1cc(Br)n2[C@@H]1O[C@H](CO)[C@H](O)[C@H]1O | 100 | > 500 | 
Nc1ncnc2c1c(Br)cn2[C@@H]1O[C@H](CO)C[C@H]1O [NQZ-194] |  |  | amplitude effect, Per2:luc signal versus control: more than two fold of control
Nc1nc2c([nH]c(=S)n2[C@@H]2O[C@H](CO)C(O)C2O)c(=O)[nH]1 (stereo partly drawn) |  | 100 | 
Nc1ncnc2c1c(Br)cn2[C@H]1O[C@H](CO)C[C@H]1O | 200 | > 500 | 
O=C(CCCC[C@@H]1SC[C@@H]2NC(=O)N[C@@H]21)Nc1ncnc2c1ncn2[C@@H]1O[C@H](CO)CC1O (stereo partly drawn) [drawing 315] |  |  | minimal effective concentration [2]: 200 µM
Nc1ncnc2c1ncn2[C@@H]1O[C@H](CO)C2OC21 (stereo partly drawn) |  | 3 | 
Nc1ncnc2c1ncn2[C@@H]1O[C@H](COP(=O)(O)OP(=O)(O)OP(=O)(O)O)CC1O (stereo partly drawn) |  | 100 | 
Nc1ncnc2c1c(Br)cn2[C@@H]1O[C@H](CO)C[C@H]1O [drawing 349] | 100 | > 500 | 
Nc1ncnc2c1ccn2[C@@H]1O[C@H](CO)CC1O (stereo partly drawn) | 25 | 200 | 
Nc1ncnc2c1ncn2[C@@H]1O[C@@H]2COP(=O)(O)OC2C1O (stereo partly drawn) |  |  | minimal effective concentration (Homo sapiens, U2OS): 200 µM

SMILES | With Pentostadin Cell Assay [1] [µM] | minimal effective concentration [3] [µM] | other results
Nc1nccc2c1ncn2[C@@H]1O[C@H](CO)C(O)C1O (stereo partly drawn) | 50 | 50 | 
Nc1ncnc2c1ncn2[C@@H]1O[C@H](CO)C(O)C1OC(=O)CCCC[C@@H]1SC[C@@H]2NC(=O)N[C@@H]21 (stereo partly drawn) | 2 | > 500 | 
Nc1ncnc2c1ccn2[C@@H]1O[C@H](CO)C(O)C1O (stereo partly drawn) [drawing 303] | 0.3 | 0.3 | 
Nc1ncnc2c1c(Br)c(Br)n2[C@@H]1O[C@H](CO)[C@H](O)[C@H]1O | 100 | > 500 | 
OC[C@H]1O[C@@H](n2cnc3cc(Cl)c(Cl)cc32)C(O)C1O (stereo partly drawn) [drawing 289] | 10 | 10 | 
Nc1ncnc2c1c(Br)cn2[C@@H]1O[C@H](CO)[C@H](O)[C@H]1O [drawing 333] | 100 | > 500 | 
Nc1ncnc2c1ccn2[C@@H]1OC[C@@H](O)[C@H](O)[C@H]1O |  | 100 | 
Nc1ncnc2c1ncn2[C@@H]1O[C@H](COP(=O)(O)O)CC1O (stereo partly drawn) |  | 100 | 
Nc1nc(F)nc2c1ncn2[C@@H]1O[C@H](CO)C(O)C1O (stereo partly drawn) |  | 50 | 
CNC(=O)c1cnn(-c2nc(N)c3ncn([C@@H]4O[C@H](CO)C(O)C4O)c3n2)c1 (stereo partly drawn) |  | 100 | 
OC[C@H]1O[C@@H](n2cnc3c(NC4CC4)ncnc32)C(O)C1O (stereo partly drawn) |  | 100 | 
OC[C@H]1O[C@@H](n2cnc3c(Cl)cc(Cl)nc32)C(O)C1O (stereo partly drawn) |  | 100 | 
OC[C@H]1O[C@@H](n2c(F)nc3c(F)nc(F)nc32)[C@H](O)[C@H]1O [NQZ-195] |  |  | period effect: elongation period effect
Nc1ncnc2c1ncn2[C@@H]1O[C@H](COC(=O)CCCC[C@@H]2SC[C@@H]3NC(=O)N[C@@H]32)C(O)C1OC(=O)CCCC[C@@H]1SC[C@@H]2NC(=O)N[C@@H]21 (stereo partly drawn) | 25 | > 500 | 
OC[C@H]1O[C@@H](n2cnc3c(Nc4cccc(O)c4)ncnc32)C(O)C1O (stereo partly drawn) |  | 200 | 
CC1(CCC(=O)O[C@@H]2[C@@H](O)[C@H](n3cnc4c(N)ncnc43)O[C@@H]2COC(=O)CCCC(=O)NCCCOCCOCCOCCCNC(=O)CCCC[C@H]2SC[C@H]3NC(=O)N[C@H]32)N=N1 | 100 | > 500 | 
Nc1ncnc2c1ncn2[C@@H]1O[C@H](CO)CC1OC(=O)CCCC[C@@H]1SC[C@@H]2NC(=O)N[C@@H]21 (stereo partly drawn) | 1.5 | > 500 | 
Nc1ncnc2c1ncn2[C@@H]1O[C@H](CO)[C@H](O)[C@H]1O [NQZ-007, 9-(β-D-xylofuranosyl)-adenine] |  |  | concentration of eliciting 12 h phase shift (potency) (pentostatin containing medium (5 μg/ml)): 0.2 µM; concentration of eliciting 12 h phase shift (potency) (without pentostatin): 25 µM
COc1cc2c(N)ncnc2n1[C@@H]1O[C@H](CO)[C@H](O)[C@H]1O | 100 | > 500 | 
O=C(CCCC[C@@H]1SC[C@@H]2NC(=O)N[C@@H]21)Nc1ncnc2c1ncn2[C@@H]1O[C@H](CO)CC1O (stereo partly drawn) [drawing 292] | 25 |  | minimal effective concentration [2]: >500 µM
Nc1ncnc2c1c(Br)cn2[C@@H]1O[C@H](CO)[C@H](O)[C@H]1O [NQZ-168] |  |  | period effect: elongation period effect
Nc1nc(Br)nc2c1ncn2[C@@H]1O[C@H](CO)C[C@H]1O | 100 | > 500 | 
Nc1ncnc2c1ncn2[C@H]1CC[C@@H](CO)O1 |  | 200 | 
Nc1ncnc2c1nc(Br)n2[C@@H]1O[C@H](CO)C[C@H]1O | 100 | > 500 | 
Nc1ncnc2c1c(I)cn2[C@@H]1O[C@H](CO)C(O)C1O (stereo partly drawn) |  |  | minimal effective concentration (Homo sapiens, U2OS): 0.3 µM
